Data on 3 compounds can be found in patent US9328360B2, “Conversion of glycerol to 1,3-propanediol under haloalkaline conditions” (The Curators of the University of Missouri, priority 2013, dated 2016).

Holding throughout (type): cell-based, Halanaerobium hydrogeniformans
Assay [1] relates to H. hydrogeniformans. The experiment in a line: Tolerance of H. hydrogeniformans to 1,3-propanediol (growth by turbidity). Particulars: for Growth: 30 mM glycerol. Here is the method: (§1) The tolerance of H. hydrogeniformans to increasing concentrations of 1,3-propanediol was examined. Anaerobic cultures were prepared in 160 mL serum bottles. The medium was prepared by boiling to degas under a N2 blanket. As the medium cooled, reductant stock mix was added to the media that contained 0.75 g Na2S and 0.6 g cysteine per liter. Once the media was cooled, the flasks were transferred into a Coy anaerobic glove bag where the 50 mL of media was dispensed into 160 mL serum bottles filled and autoclaved (121° C., 20 min). After autoclaving, the headspace gas was exchanged for 80% N2/20% CO2 mixture. The bottles then were inoculated with a 10% inoculum from previous stock cultures and amended with 30 mM glycerol. Sterilized 1,3-propanediol was added to the serum bottles to achieve 10, 30, 60, 120, 380, and 750 mM. Growth was examined by turbidity readings taken at […].

Assay [2] deals with H. hydrogeniformans. The experiment in a line: Requirement of B12: 1,3-propanediol production from 30 mM glycerol over a vitamin B12 gradient (HPLC). Particulars: for Percent mole/mole conversion of glycerol to 1,3-propanediol / 1,3-propanediol produced: 30 mM glycerol. The method, then:
Anaerobic cultures were prepared in 160 mL serum bottles. The medium was prepared by boiling to degas under a N2 blanket. As the medium cooled, reductant stock mix was added to the media that contained 0.75 g Na2S and 0.6 g cysteine per liter. Once the media was cooled, the flasks were transferred into a Coy anaerobic glove bag where the 50 mL of media was dispensed into 160 mL serum bottles filled and autoclaved (121° C., 20 min). After autoclaving, the headspace gas was exchanged for 80% N2/20% CO2 mixture. The bottles then were inoculated with a 10% inoculum from previous stock cultures. 30 mM glycerol was added. Vitamin B12 supplementation from anaerobic, filter-sterilized stocks were added right before inoculation at 0 μg/L, 25 μg/L, 50 μg/L, 75 μg/L, and 100 μg/L.
Samples were taken every 24 hours. 5 mL syringes were degassed with N2/CO2 mix, and 1 mL of culture sample was removed for each of the sample periods. The sample was placed in a 1.5 mL Eppendorf tube, and centrifuged for 5 min at 13,000×g. The supernatant was decanted into another 1.5 mL Eppendorf tube, and frozen for HPLC analysis.
For HPLC analysis, filter sterilized samples ([…] PTFE filters) were injected onto a 300×7.8 mm Aminex HPX-87H column (BioRad, Hercules, Calif.) maintained at 50° C. The mobile phase was 2.5 mM H2SO4 maintained at a constant flow rate of 0.6 ml/min and at approximately 2.2 MPa. Detection was done with both a UV 231 (at 210 nm) and refractive index monitor.

Assay [3] deals with H. hydrogeniformans. In words: Tolerance of H. hydrogeniformans to glycerol (growth by turbidity). Particulars: 7% NaCl, pH 11. The method, then: as §1, with “to” for “to increasing”, “glycerol” for “1,3-propanediol”, “cultures.” for “cultures and amended with 30 mM glycerol.”, “7.5, 15,” for “10,”, “240, 480, 960,” for “380,”, “1920” for “750”

Take `OCCCO` [1,3-propanediol]: the Growth result in assay [1] (1,3-propanediol 10 mM), in assay [1] (1,3-propanediol 30 mM), in assay [1] (1,3-propanediol 60 mM), in assay [1] (1,3-propanediol 120 mM) and in assay [1] (1,3-propanediol 380 mM) was “capable of growth” in each case. The “1,3-propanediol concentration at which growth is possible” value in assay [1] (7% NaCl, pH 11) turned out to be 380 mM. Besides, in assay [1] (in addition to 7% (w/v) and pH 11), the “1,3-propanediol concentration tolerated” value is recorded as “at least 0.38 M”.
In the case of `OCC(O)CO` [Glycerol, glycerol], in assay [2] (B12 amendment 0 μg/L), the “Percent mole/mole conversion of glycerol to 1,3-propanediol” value is 31.5 % mol 1,3-propandiol/mol glycerol. This compound yielded a conversion rate in assay [2] (absence of B12) of 31%. Moreover, in assay [2] (no vitamin B12 provided), the “1,3-propanediol produced” value is listed as “approximately 8.5 mM”. Further, the Growth entry in assay [3] (Glycerol 7.5 mM), in assay [3] (Glycerol 15 mM), in assay [3] (Glycerol 30 mM), in assay [3] (Glycerol 60 mM), in assay [3] (Glycerol 120 mM) and in assay [3] (Glycerol 240 mM) was “capable of growth” in each case. Moreover, the Growth result in assay [3] (Glycerol 480 mM), in assay [3] (Glycerol 960 mM) and in assay [3] (Glycerol 1920 mM) was “capable of growth” throughout.
Consider vitamin B12, for which the “Percent mole/mole conversion of glycerol to 1,3-propanediol” value is listed as 59.1 % mol 1,3-propandiol/mol glycerol in assay [2] (B12 amendment 25 μg/L), 60.3 % mol 1,3-propandiol/mol glycerol in assay [2] (B12 amendment 50 μg/L), 60.1 % mol 1,3-propandiol/mol glycerol in assay [2] (B12 amendment 75 μg/L) and 60.2 % mol 1,3-propandiol/mol glycerol in assay [2] (B12 amendment 100 μg/L). For the same compound, in assay [2] (B12 supplementation >25 μg/L), the conversion rate result was “approximately 60%”. In assay [2] (culture amended with 25, 50, 75, or 100 μg/L vitamin B12), the “1,3-propanediol produced” value is on record as “Approximately 16.5 mM”.
